Source: patent publication US20230157952A1, “METHOD FOR IMPROVING THE STABILITY OF A PHARMACEUTICAL COMPOSITION COMPRISING A HIGH PENETRATION DRUG, AND THE PHARMACEUTICAL COMPOSITION OBTAINED THEREFROM” (Techfields Inc., priority 2020, published 2023)

How the values were obtained:
[1] = Effect of temperature (and pH) on the stability of the solution (purity); assay type: physicochemical; details: 7% solution in water
[2] = Effect of concentration on the stability of the solution (purity over time); details: in water at 25° C.

CCN(CC)CCOC(=O)Cc1ccc(C(=O)c2ccc(C)cc2)n1C.Cl [2-(diethylamino)ethyl 1-methyl-5-(4-methylbenzoyl)-1H-pyrrole-2-acetate•HCl]
Stability of the solution at a temperature higher than 40° C. and a pH lower than 3 or greater than 6 [1]: not stable | Purity at Day 3 ([2]; 0.01 wt %): 82.3% | Purity at Day 7 ([2]; 0.01 wt %): 72.2% | Purity at Day 14 ([2]; 0.01 wt %): 57.4% | Purity at Day 21 ([2]; 0.01 wt %): 45.4% | Purity at Day 28 ([2]; 0.01 wt %): 35.7% | Purity at hr 0 ([2]; 0.01 wt %): 97.4% | Purity at Day 3 ([2]; 0.1 wt %): 95.6% | Purity at Day 7 ([2]; 0.1 wt %): 93.3% | Purity at Day 14 ([2]; 0.1 wt %): 88.3% | Purity at Day 21 ([2]; 0.1 wt %): 83.5% | Purity at Day 28 ([2]; 0.1 wt %): 78.1% | Purity at hr 0 ([2]; 0.1 wt %): 97.5% | Purity at Day 3 ([2]; 1 wt %): 95.7% | Purity at Day 7 ([2]; 1 wt %): 94.6% | Purity at Day 14 ([2]; 1 wt %): 92.3% | Purity at Day 21 ([2]; 1 wt %): 90.1% | Purity at Day 28 ([2]; 1 wt %): 88.6% | Purity at hr 0 ([2]; 1 wt %): 97.7% | Purity at Day 3 ([2]; 3 wt %): 96.5% | Purity at Day 7 ([2]; 3 wt %): 96.2% | Purity at Day 14 ([2]; 3 wt %): 94.8% | Purity at Day 21 ([2]; 3 wt %): 94.0% | Purity at Day 28 ([2]; 3 wt %): 92.7% | Purity at hr 0 ([2]; 3 wt %): 97.9% | Purity at Day 3 ([2]; 5 wt %): 97.2% | Purity at Day 7 ([2]; 5 wt %): 97.0% | Purity at Day 14 ([2]; 5 wt %): 96.8% | Purity at Day 21 ([2]; 5 wt %): 95.6% | Purity at Day 28 ([2]; 5 wt %): 94.4% | Purity at hr 0 ([2]; 5 wt %): 97.9% | Purity at Day 3 ([2]; 7 wt %): 97.5% | Purity at Day 7 ([2]; 7 wt %): 97.2% | Purity at Day 14 ([2]; 7 wt %): 97.2% | Purity at Day 21 ([2]; 7 wt %): 96.7% | Purity at Day 28 ([2]; 7 wt %): 96.5% | Purity at hr 0 ([2]; 7 wt %): 98.1% | Purity at Day 3 ([2]; 8 wt %): 97.7% | Purity at Day 7 ([2]; 8 wt %): 97.3% | Purity at Day 14 ([2]; 8 wt %): 96.9% | Purity at Day 21 ([2]; 8 wt %): 96.9% | Purity at Day 28 ([2]; 8 wt %): 96.6% | Purity at hr 0 ([2]; 8 wt %): 98.1% | Purity at Day 3 ([2]; 10 wt %): 97.9% | Purity at Day 7 ([2]; 10 wt %): 97.5% | Purity at Day 14 ([2]; 10 wt %): 97.3% | Purity at Day 21 ([2]; 10 wt %): 97.1% | Purity at Day 28 ([2]; 10 wt %): 96.5% | Purity at hr 0 ([2]; 10 wt %): 98.2% | Purity at Day 3 ([2]; 15 wt %): 97.7% | Purity at Day 7 ([2]; 15 wt %): 97.6% | Purity at Day 14 ([2]; 15 wt %): 97.4% | Purity at Day 21 ([2]; 15 wt %): 97.1% | Purity at Day 28 ([2]; 15 wt %): 96.8% | Purity at hr 0 ([2]; 15 wt %): 98.1% | Purity at Day 3 ([2]; 20 wt %): 97.6% | Purity at Day 7 ([2]; 20 wt %): 97.5% | Purity at Day 14 ([2]; 20 wt %): 97.2% | Purity at Day 21 ([2]; 20 wt %): 97.1% | Purity at Day 28 ([2]; 20 wt %): 96.8% | Purity at hr 0 ([2]; 20 wt %): 98.0% | Purity at Day 3 ([2]; 30 wt %): 97.7% | Purity at Day 7 ([2]; 30 wt %): 97.5% | Purity at Day 14 ([2]; 30 wt %): 97.3% | Purity at Day 21 ([2]; 30 wt %): 97.0% | Purity at Day 28 ([2]; 30 wt %): 96.7% | Purity at hr 0 ([2]; 30 wt %): 98.1% | Purity at Day 3 ([2]; 50 wt %): 97.8% | Purity at Day 7 ([2]; 50 wt %): 97.5% | Purity at Day 14 ([2]; 50 wt %): 97.2% | Purity at Day 21 ([2]; 50 wt %): 96.9% | Purity at Day 28 ([2]; 50 wt %): 96.8% | Purity at hr 0 ([2]; 50 wt %): 98.2% | Stability when the concentration is 0.1% or lower [2]: not stable
